Measurements reported in patent US8309552B2, “Immunomodulating heterocyclic compounds” (Medigene AG, priority 2003, dated 2012).
pEC50: −log10 of the molar value.

Biological target: T1, CD80-CD28 interaction (Homo sapiens, UniProt P33681)
T1 sequence (P33681 35-242 limits assumed): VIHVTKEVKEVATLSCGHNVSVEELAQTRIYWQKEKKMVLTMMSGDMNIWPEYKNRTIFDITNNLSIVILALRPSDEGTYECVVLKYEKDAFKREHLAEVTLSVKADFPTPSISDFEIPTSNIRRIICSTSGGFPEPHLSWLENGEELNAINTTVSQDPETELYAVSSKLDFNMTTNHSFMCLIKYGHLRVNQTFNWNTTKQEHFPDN
Test: Homogenous Time Resolved Fluorescence (HTRF) assay, cell free
Format: binding
Settings: cell free HTRF assay; concentration series 100 μM-1.7 nM; 4 hours at room temperature; read-out: Activity (EC50 in the HTRF assay)
Outline: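 Europium and APC labels were linked through antibodies to CD28 and CD80 fusion proteins. Compounds were tested at 100 μM-1.7 nM for 4 h at room temperature in 50 mM Tris-HCl, 150 mM NaCl pH7.8, 0.1% BSA. Emission read at 665 and 615 nm (excitation 340 nm); non-specific signal measured with C215 Fab in place of CD80; EC50 reported in bands.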

pEC50	Compound
> 6.00	CC(=O)NCCCCNC(=O)Nc1ccc(-n2[nH]c3c(nnc4ccccc43)c2=O)cc1 [Example 222]
> 6.00	CCN(CC)CCNC(=O)c1ccc(-n2[nH]c3c(nnc4c(F)cccc43)c2=O)cc1 [Example 342]
> 6.00	CC(C)NCCCNC(=O)c1ccc(-n2[nH]c3c(nnc4cccc(F)c43)c2=O)cc1 [Example 395]
> 6.00	CC1CCCCN1CCCNC(=O)c1ccc(-n2[nH]c3c(nnc4c(F)cccc43)c2=O)cc1 (centres unmarked) [Example 358]
> 6.00	O=C(NCCCCN1CCCC1)c1ccc(-n2[nH]c3c(nnc4c(F)cc(F)cc43)c2=O)cc1 [Example 416]
5.00 to 6.00	CCC(C)NC(=O)c1ccc(-n2[nH]c3c(nnc4ccccc43)c2=O)cc1 (centres unmarked) [Example 258]
> 6.00	CC(C)NC(=O)c1ccc(-n2[nH]c3c(nnc4ccccc43)c2=O)cc1 [Example 243]
5.00 to 6.00	O=C(NCCc1ccc(Cl)cc1)c1ccc(-n2[nH]c3c(nnc4c(F)cccc43)c2=O)cc1 [Example 363]
> 6.00	COCCCNC(=O)c1ccc(-n2[nH]c3c(nnc4ccccc43)c2=O)cc1 [Example 247]
> 6.00	CNCCCNC(=O)c1ccc(-n2[nH]c3c(nnc4c(F)ccc(F)c43)c2=O)cc1 [Example 428]
< 5.00	O=C(Nc1ccc(-n2[nH]c3c(nnc4ccccc43)c2=O)cc1)NC1Cc2ccccc2C1 [Example 226]
> 6.00	CC1CCCCN1CCCNC(=O)c1ccc(-n2[nH]c3c(nnc4ccc(F)cc43)c2=O)cc1 (centres unmarked) [Example 332]
> 6.00	O=C(NC1CCCC1)c1ccc(-n2[nH]c3c(nnc4c(F)cccc43)c2=O)cc1 [Example 425]
> 6.00	CCCCNCCNC(=O)c1ccc(-n2[nH]c3c(nnc4ccc(F)cc43)c2=O)cc1 [Example 384]
< 5.00	O=C(NC1CCc2ccccc21)c1ccc(-n2[nH]c3c(nnc4ccccc43)c2=O)cc1 (centres unmarked) [Example 252]
5.00 to 6.00	O=C(NC1CC1c1ccccc1)c1ccc(-n2[nH]c3c(nnc4ccccc43)c2=O)cc1 (centres unmarked) [Example 315]
5.00 to 6.00	O=C(NCCc1c[nH]c2ccccc12)c1ccc(-n2[nH]c3c(nnc4ccccc43)c2=O)cc1 [Example 268]
> 6.00	CN(C)CCCNC(=O)c1ccc(-n2[nH]c3c(nnc4c(Cl)cccc43)c2=O)cc1 [Example 411]
> 6.00	CCN(CC)CCNC(=O)c1ccc(-n2[nH]c3c(nnc4ccc(F)cc43)c2=O)cc1 [Example 326]
5.00 to 6.00	O=C(NC1CCC1)c1ccc(-n2[nH]c3c(nnc4ccccc43)c2=O)cc1 [Example 239]
> 6.00	CC(C)(C)NC(=O)c1ccc(-n2[nH]c3c(nnc4cccc(F)c43)c2=O)cc1 [Example 400]

Same assay, conditions: cell-free HTRF, compound concentration series 100 μM-1.7 nM, 4 hours at room temperature; read-out: Activity (EC50 in the HTRF assay)

pEC50	Compound
5.00 to 6.00	CCOC(=O)CCNC(=O)Nc1ccc(-n2[nH]c3c(nnc4ccccc43)c2=O)cc1 [Example 156]
5.00 to 6.00	CCOC(=O)C(C)NC(=O)c1ccc(-n2[nH]c3c(nnc4ccccc43)c2=O)cc1 (centres unmarked) [Example 118]
> 6.00	O=C(NCCNCCO)c1ccc(-n2[nH]c3c(nnc4ccccc43)c2=O)cc1 [Example 109]
5.00 to 6.00	O=C(NCCOCCO)c1ccc(-n2[nH]c3c(nnc4ccccc43)c2=O)cc1 [Example 50]
5.00 to 6.00	NS(=O)(=O)c1ccc(CCNC(=O)c2ccc(-n3[nH]c4c(nnc5ccccc54)c3=O)cc2)cc1 [Example 114]
> 6.00	O=C(NCCOCCO)Nc1ccc(-n2[nH]c3c(nnc4ccccc43)c2=O)cc1 [Example 145]
< 5.00	O=C(NCCSCc1c(F)cccc1Cl)Nc1ccc(-n2[nH]c3c(nnc4ccccc43)c2=O)cc1 [Example 180]
5.00 to 6.00	NC(=O)CNC(=O)Nc1ccc(-n2[nH]c3c(nnc4ccccc43)c2=O)cc1 [Example 157]
< 5.00	CC(C)(C)OC(=O)CNC(=O)Nc1ccc(-n2[nH]c3c(nnc4ccccc43)c2=O)cc1 [Example 205]
5.00 to 6.00	CCOC(=O)CCC(NC(=O)c1ccc(-n2[nH]c3c(nnc4ccccc43)c2=O)cc1)C(=O)OCC (centres unmarked) [Example 74]
5.00 to 6.00	O=C(NCCc1ccc([N+](=O)[O-])cc1)Nc1ccc(-n2[nH]c3c(nnc4ccccc43)c2=O)cc1 [Example 155]
> 6.00	O=C(NCCCNC1CCCCC1)Nc1ccc(-n2[nH]c3c(nnc4ccccc43)c2=O)cc1 [Example 134]
5.00 to 6.00	CCOC(=O)C(C)NC(=O)Nc1ccc(-n2[nH]c3c(nnc4ccccc43)c2=O)cc1 (centres unmarked) [Example 158]
5.00 to 6.00	CC(C)CNC(=O)Nc1ccc(-n2[nH]c3c(nnc4ccccc43)c2=O)cc1 [Example 138]
> 6.00	O=C(NCCCN1CCOCC1)Nc1ccc(-n2[nH]c3c(nnc4ccccc43)c2=O)cc1 [Example 179]
> 6.00	CCNC(=O)c1ccc(-n2[nH]c3c(nnc4ccccc43)c2=O)cc1 [Example 46]
> 6.00	CCNCCNC(=O)Nc1ccc(-n2[nH]c3c(nnc4ccccc43)c2=O)cc1 [Example 143]

pEC50	Compound
> 6.00	O=C(NCCCN1CCOCC1)c1ccc(-n2[nH]c3c(nnc4ccccc43)c2=O)cc1 [Example 13]
5.00 to 6.00	O=C(NCCOc1ccccc1)Nc1ccc(-n2[nH]c3c(nnc4ccccc43)c2=O)cc1 [Example 208]
5.00 to 6.00	O=C(NCCCCCO)Nc1ccc(-n2[nH]c3c(nnc4ccccc43)c2=O)cc1 [Example 151]
5.00 to 6.00	CC(C)(C)OC(=O)NCCCNC(=O)Nc1ccc(-n2[nH]c3c(nnc4ccccc43)c2=O)cc1 [Example 213]
5.00 to 6.00	O=C(NC1CCCC1)c1ccc(-n2[nH]c3c(nnc4ccccc43)c2=O)cc1 [Example 83]
5.00 to 6.00	CN1C(C)(C)CC(NC(=O)Nc2ccc(-n3[nH]c4c(nnc5ccccc54)c3=O)cc2)CC1(C)C [Example 135]
5.00 to 6.00	O=C(NCCCNC(=O)c1ccc(-n2[nH]c3c(nnc4ccccc43)c2=O)cc1)OCc1ccccc1 [Example 42]
> 6.00	CN(C)CCNC(=O)c1ccc(-n2[nH]c3c(nnc4ccccc43)c2=O)cc1 [Example 11]
> 6.00	CCN(CC)CCCC(C)NC(=O)Nc1ccc(-n2[nH]c3c(nnc4ccccc43)c2=O)cc1 (centres unmarked) [Example 168]
5.00 to 6.00	CCOCCCNC(=O)Nc1ccc(-n2[nH]c3c(nnc4ccccc43)c2=O)cc1 [Example 128]
5.00 to 6.00	CCCCCCNC(=O)c1ccc(-n2[nH]c3c(nnc4ccccc43)c2=O)cc1 [Example 113]
> 6.00	CC(C)CCCC(C)NC(=O)c1ccc(-n2[nH]c3c(nnc4ccccc43)c2=O)cc1 (centres unmarked) [Example 26]
> 6.00	CC[C@@H](C)NC(=O)c1ccc(-n2[nH]c3c(nnc4ccccc43)c2=O)cc1 [Example 70]
> 6.00	CC(C)NCCCNC(=O)c1ccc(-n2[nH]c3c(nnc4ccccc43)c2=O)cc1 [Example 110]
> 6.00	O=C(NCCc1ccncc1)c1ccc(-n2[nH]c3c(nnc4ccccc43)c2=O)cc1 [Example 20]
< 5.00	CCCCCCCC(C)NC(=O)c1ccc(-n2[nH]c3c(nnc4ccccc43)c2=O)cc1 (centres unmarked) [Example 92]
5.00 to 6.00	O=C(NCCCCc1ccccc1)c1ccc(-n2[nH]c3c(nnc4ccccc43)c2=O)cc1 [Example 73]

Same assay, conditions: cell-free HTRF, concentration series 100 μM-1.7 nM, 4 hours at room temperature; read-out: Activity (EC50 in the HTRF assay)

pEC50	Compound
5.00 to 6.00	O=C(NCC1CCCCCC1O)c1ccc(-n2[nH]c3c(nnc4c(F)cccc43)c2=O)cc1 (centres unmarked) [Example 503]
> 6.00	CN1C(C)(C)CC(NC(=O)c2ccc(-n3[nH]c4c(nnc5ccc(Cl)cc54)c3=O)cc2)CC1(C)C [Example 447]
5.00 to 6.00	CCCN(CC)C(=O)c1ccc(-n2[nH]c3c(nnc4c(F)cccc43)c2=O)cc1 [Example 452]
5.00 to 6.00	O=C(NCC1CCCCCCC1O)c1ccc(-n2[nH]c3c(nnc4c(F)cccc43)c2=O)cc1 (centres unmarked) [Example 506]
> 6.00	CCC(CO)NC(=O)c1ccc(-n2[nH]c3c(nnc4c(F)cccc43)c2=O)cc1 (centres unmarked) [Example 509]
> 6.00	CC1CN(CCCCNC(=O)c2ccc(-n3[nH]c4c(nnc5c(F)cccc54)c3=O)cc2)CC(C)O1 (centres unmarked) [Example 460]
> 6.00	O=C(NCCCCF)c1ccc(-n2[nH]c3c(nnc4c(F)cccc43)c2=O)cc1 [Example 437]
> 6.00	O=C(NCCCCN1CCCC1)c1ccc(-n2[nH]c3c(nnc4ccc(Cl)cc43)c2=O)cc1 [Example 449]
> 6.00	CC1CN(C(=O)c2ccc(-n3[nH]c4c(nnc5c(F)cccc54)c3=O)cc2)CC(C)O1 (centres unmarked) [Example 461]
> 6.00	C=CCN(CC=C)CCCCNC(=O)c1ccc(-n2[nH]c3c(nnc4c(F)cccc43)c2=O)cc1 [Example 459]
> 6.00	CCC(C)(C)NCCCCNC(=O)c1ccc(-n2[nH]c3c(nnc4c(F)cccc43)c2=O)cc1 [Example 480]
> 6.00	O=C(NC(CO)(CO)CO)c1ccc(-n2[nH]c3c(nnc4c(F)cccc43)c2=O)cc1 [Example 487]
5.00 to 6.00	C=CCN(CC=C)C(=O)c1ccc(-n2[nH]c3c(nnc4c(F)cccc43)c2=O)cc1 [Example 474]
> 6.00	O=C(NCC(F)F)c1ccc(-n2[nH]c3c(nnc4c(F)ccc(F)c43)c2=O)cc1 [Example 500]
> 6.00	CC(CO)NC(=O)c1ccc(-n2[nH]c3c(nnc4c(F)cccc43)c2=O)cc1 (centres unmarked) [Example 508]
< 5.00	CC(C)(CO)NC(=O)c1ccc(-n2[nH]c3c(nnc4c(F)cccc43)c2=O)cc1 [Example 516]
